The values that follow are results of earlier work, collected in paper PMC8554823 (ACS Central Science, 2021).

This data set addresses human granzyme B (Homo sapiens, UniProt P10144). To be noted: previously reported value for IEPD alone.

Sequence of human granzyme B (P10144 21-247): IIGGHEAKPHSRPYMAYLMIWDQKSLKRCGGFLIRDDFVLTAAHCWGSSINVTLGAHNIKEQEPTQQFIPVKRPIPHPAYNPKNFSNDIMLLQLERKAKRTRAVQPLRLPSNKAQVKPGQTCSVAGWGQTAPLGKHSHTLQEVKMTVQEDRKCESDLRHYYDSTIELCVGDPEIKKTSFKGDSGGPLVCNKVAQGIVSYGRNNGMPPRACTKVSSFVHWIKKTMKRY

In the case of IEPD, the “catalytic efficiency (kcat/Km)” value was about 3300 M^–1 s^–1.
